# Data reported in ChEMBL document CHEMBL1125729, “A cardioselective, hydrophilic N,N,N-trimethylethanaminium alpha-tocopherol analogue that reduces myocardial infarct size” (J Med Chem, 1991).
# Legend:
# [1] = Partition coefficient (logD) (octanol/phosphate buffer); assay type: physicochemical
# Rattus norvegicus [2] = species on record: Rattus norvegicus; assay: Compound was evaluated for prevention of spontaneous lipid peroxidation in rat brain homogenate.; assay type: functional
# Rattus norvegicus [3] = assay: Total radioactivity 1 hour after intravenous administration of 1 mg/kg in rat blood.; assay type: functional
# Rattus norvegicus [4] = assay: Total radioactivity 1 hour after intravenous administration of 1 mg/kg in rat heart.; assay type: functional
# Rattus norvegicus [5] = assay: Total radioactivity 1 hour after intravenous administration of 1 mg/kg in rat skeletal muscle.; assay type: functional, Muscle tissue
# [6] = Ratio of total radioactivity of blood to blood in rats.
# [7] = Ratio of total radioactivity of heart tissue to blood in rats.; assay type: tissue-based
# [8] = Ratio of total radioactivity of skeletal muscle to blood in rats.
SMILES,logD [1],IC50 (Rattus norvegicus [2]) [µM],Total radioactivity (Rattus norvegicus [3]),Total radioactivity (Rattus norvegicus [4]),Total radioactivity (Rattus norvegicus [5]),Ratio [6],Ratio [7],Ratio [8]
Cc1c(C)c2c(c(C)c1O)CCC(C)(C(=O)O)O2 (stereo unspecified) [TROLOX],-1.02,12,,,,,,
Cc1c(C)c2c(c(C)c1O)CCC(C)(CCN(C)C)O2 (stereo unspecified),1.15,0.5,,,,,,
Cc1c(C)c2c(c(C)c1O)CCC(C)(CC[N+](C)(C)C)O2 (stereo unspecified),-0.6,1.7,,,,,,
CC(=O)Oc1c(C)c(C)c2c(c1C)CCC(C)(CC[N+](C)(C)C)O2 (stereo unspecified),-0.18,,0.11,2.28,0.19,1,20.7,1.7
Cc1c(C)c2c(c(C)c1O)CC[C@@](C)(CCC[C@H](C)CCC[C@H](C)CCCC(C)C)O2 (racemic) [ALPHA-TOCOPHEROL],,12,,,,,,
CC(=O)Oc1c(C)c(C)c2c(c1C)CCC(C)(CCN(C)C)O2 (stereo unspecified),1.56,,0.18,0.28,0.27,1,1.6,1.5
